Test [1] deals with T1, TGF-β R1 ALK5 (Homo sapiens, UniProt P36897).
T1 construct: purchased Invitrogen PV5837
T1 sequence (P36897 34-503): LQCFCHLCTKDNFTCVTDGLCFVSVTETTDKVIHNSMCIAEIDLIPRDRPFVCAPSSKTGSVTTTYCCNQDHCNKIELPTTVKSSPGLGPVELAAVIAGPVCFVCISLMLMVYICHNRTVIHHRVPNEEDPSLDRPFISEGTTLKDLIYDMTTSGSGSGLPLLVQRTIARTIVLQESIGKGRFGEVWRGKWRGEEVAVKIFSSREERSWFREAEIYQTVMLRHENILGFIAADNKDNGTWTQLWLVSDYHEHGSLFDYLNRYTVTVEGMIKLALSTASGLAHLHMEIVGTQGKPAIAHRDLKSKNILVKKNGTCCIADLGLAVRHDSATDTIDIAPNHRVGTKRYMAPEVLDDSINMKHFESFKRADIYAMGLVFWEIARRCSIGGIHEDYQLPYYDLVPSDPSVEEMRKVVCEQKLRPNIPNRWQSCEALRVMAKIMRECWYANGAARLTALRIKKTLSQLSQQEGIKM
Briefly: In vitro inhibition of ALK5 (LanthaScreen activity assay, TR-FRET). Format: biochemical. (Time-resolved FRET reads energy transfer from a long-lived donor to a nearby acceptor.)

In test [2] the target is T2, cellular TGF-β R1 ALK5 (Homo sapiens, UniProt P36897).
T2 construct: host or cells: CellSensor SBE-bla HEK 293T
T2 sequence (P36897 34-503): T1 sequence (P36897 34-503)
Nature of the test: Cellular inhibition of ALK5 (CellSensor SBE-bla HEK 293T beta-lactamase reporter). Type of test: cell-based. Particulars: cellular inhibition of ALK5, SBE-bla HEK 293T cells, TGFb-1 stimulated 5 hours; average where measured in multiple experiments. Summed up:
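SBE-bla HEK 293T beta-lactamase reporter cells pre-incubated 1 h at 37 °C with 2.5-fold serially diluted compounds (0.5% DMSO), then stimulated 5 h with TGFb-1 (100 ng/mL stock).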

Usually IC50 stands for the point on the concentration scale where inhibition reaches its midpoint. Low values mean greater potency in that assay, high ones weaker potency in that assay.

With `CNC(=O)n1ncc2nccc(Nc3ccnc(-c4cc(Cl)c(F)cc4F)c3)c21` [Example 63, 7-(2-(5-chloro-2,4-difluorophenyl)pyridin-4-ylamino)-N-methyl-1H-pyrazolo[4,3-b]pyridine-1-carboxamide], the IC50 in test [1] was 31.6 nM; in test [2], 398 nM.

`COCCCn1ncc2nccc(Nc3ccnc(-c4cc(Cl)ccc4F)c3)c21` [Example 33, N-(2-(5-chloro-2-fluorophenyl)pyridin-4-yl)-1-(3-methoxypropyl)-1H-pyrazolo[4,3-b]pyridin-7-amine]: the IC50 in test [1] and in test [2] was 200 nM each time.

As for `CCn1cc2nccc(Nc3cc(-c4nc(C)ccc4F)ncc3C)c2n1` [Example 126, 2-ethyl-N-(3′-fluoro-5,6′-dimethyl-2,2′-bipyridin-4-yl)-2H-pyrazolo[4,3-b]pyridin-7-amine], the IC50 in test [1] is 10 nM; in test [2], 15.8 nM.

For `Cc1ccc(F)c(-c2cc(Nc3ccnc4cn(C)nc34)ccn2)n1` [Example 66, N-(3′-fluoro-6′-methyl-2,2′-bipyridin-4-yl)-2-methyl-2H-pyrazolo[4,3-b]pyridin-7-amine], the IC50 in test [1] and in test [2] was 39.8 nM each time.

Turning to `Cc1ccc(F)c(-c2cc(Nc3ccnc4cnn(C[C@@H](C)O)c34)c(C)cn2)n1` [Example 151, (R)-1-(7-(3′-fluoro-5,6′-dimethyl-2,2′-bipyridin-4-ylamino)-1H-pyrazolo[4,3-b]pyridin-1-yl)propan-2-ol], the IC50 in test [1] was 6.31 nM; in test [2] it was 63.1 nM.

With `CCNC(=O)Cn1ncc2nccc(Nc3cc(-c4cc(F)ccc4F)ncc3C)c21` [Example 155, 2-(7-(2-(2,5-difluorophenyl)-5-methylpyridin-4-ylamino)-1H-pyrazolo[4,3-b]pyridin-1-yl)-N-ethylacetamide], the values for the IC50 in test [1] and in test [2] were 25.1 nM and 794 nM, respectively.

For `Cc1cnc(-c2cc(Cl)ccc2F)cc1Nc1ccnc2cnn(CC(N)=O)c12` [Example 51, 2-(7-(2-(5-chloro-2-fluorophenyl)-5-methylpyridin-4-ylamino)-1H-pyrazolo[4,3-b]pyridin-1-yl)acetamide], the IC50 in test [1] was 12.6 nM; in test [2] it was 20 nM.

For `COCCCn1cc2nccc(Nc3ccnc(-c4cc(Cl)ccc4F)c3)c2n1` [Example 34, N-(2-(5-chloro-2-fluorophenyl)pyridin-4-yl)-2-(3-methoxypropyl)-2H-pyrazolo[4,3-b]pyridin-7-amine], the IC50 in test [1] and in test [2] was 398 nM in each case.

Consider `Cc1cnc(-c2cc(F)ccc2F)cc1Nc1ccnc2cnn(CC(C)O)c12` (centres unmarked) [Example 144, 1-(7-(2-(2,5-difluorophenyl)-5-methylpyridin-4-ylamino)-1H-pyrazolo[4,3-b]pyridin-1-yl)propan-2-ol], for which the results for the IC50 in test [1] and in test [2] were 2.51 nM and 20 nM, respectively.

Take `CCn1ncc2nccc(Nc3cc(-c4nc(C)ccc4F)ncc3C)c21` [Example 134, 1-ethyl-N-(3′-fluoro-5,6′-dimethyl-2,2′-bipyridin-4-yl)-1H-pyrazolo[4,3-b]pyridin-7-amine]: the IC50 in test [1] was 2 nM; in test [2] it was 50.1 nM.

As for `Cc1ccc(F)c(-c2cc(Nc3ccnc4cnn(C[C@H](C)O)c34)c(C)cn2)n1` [Example 152, (S)-1-(7-(3′-fluoro-5,6′-dimethyl-2,2′-bipyridin-4-ylamino)-1H-pyrazolo[4,3-b]pyridin-1-yl)propan-2-ol], the IC50 in test [1] was 7.94 nM; in test [2] it was 100 nM.

As for `Cc1ccc(F)c(-c2cc(Nc3ccnc4cnn(CC(F)F)c34)ccn2)n1` [Example 105, 1-(2,2-difluoroethyl)-N-(3′-fluoro-6′-methyl-2,2′-bipyridin-4-yl)-1H-pyrazolo[4,3-b]pyridin-7-amine], the IC50 in test [1] is 20 nM; in test [2] it was 39.8 nM.

As for `COCCn1cc2ncc(F)c(Nc3cc(-c4cc(Cl)ccc4F)ncc3C)c2n1` [Example 16, N-(2-(5-chloro-2-fluorophenyl)-5-methylpyridin-4-yl)-6-fluoro-2-(2-methoxyethyl)-2H-pyrazolo[4,3-b]pyridin-7-amine], the IC50 in test [1] was 31.6 nM; in test [2] it was 501 nM.

With `Cc1ccc(F)c(-c2cc(Nc3ccnc4cn(CCCO)nc34)c(C)cn2)n1` [Example 90, 3-(7-(3′-fluoro-5,6′-dimethyl-2,2′-bipyridin-4-ylamino)-2H-pyrazolo[4,3-b]pyridin-2-yl)propan-1-ol], the IC50 is 7.94 nM in test [1] and 63.1 nM in test [2].

As to `CNC(=O)n1ncc2nccc(Nc3cc(C)nc(-c4cc(Cl)ccc4F)c3)c21` [Example 58, 7-(2-(5-chloro-2-fluorophenyl)-6-methylpyridin-4-ylamino)-N-methyl-1H-pyrazolo[4,3-b]pyridine-1-carboxamide], the IC50 in test [1] is 79.4 nM; in test [2], 126 nM.

Consider `Cc1ccc(F)c(-c2cc(Nc3ccnc4cn(CCC(C)(C)O)nc34)ccn2)n1` [Example 119, 4-(7-(3′-fluoro-6′-methyl-2,2′-bipyridin-4-ylamino)-2H-pyrazolo[4,3-b]pyridin-2-yl)-2-methylbutan-2-ol], for which the IC50 in test [1] is 20 nM; in test [2] it was 79.4 nM.

Regarding `NC(=O)Cn1cc2nccc(Nc3ccnc(-c4cc(F)ccc4F)c3)c2n1` [Example 87, 2-(7-(2-(2,5-difluorophenyl)pyridin-4-ylamino)-2H-pyrazolo[4,3-b]pyridin-2-yl)acetamide], the IC50 in test [1] is 25.1 nM; in test [2], 251 nM.

With `Cc1ccc(F)c(-c2cc(Nc3ccnc4cn(C[C@H](C)O)nc34)ccn2)n1` [Example 107, (S)-1-(7-(3′-fluoro-6′-methyl-2,2′-bipyridin-4-ylamino)-2H-pyrazolo[4,3-b]pyridin-2-yl)propan-2-ol], the IC50 is 6.31 nM in test [1] and 39.8 nM in test [2].

As for `Cc1ccc(F)c(-c2cc(Nc3c(F)cnc4cn(CCO)nc34)c(C)cn2)n1` [Example 91, 2-(6-fluoro-7-(3′-fluoro-5,6′-dimethyl-2,2′-bipyridin-4-ylamino)-2H-pyrazolo[4,3-b]pyridin-2-yl)ethanol], the IC50 in test [1] is 20 nM; in test [2], 158 nM.

Consider `Cc1ccc(F)c(-c2cc(Nc3ccnc4cnn(CC(=O)NC5CC5)c34)c(C)cn2)n1` [Example 117, N-cyclopropyl-2-(7-(3′-fluoro-5,6′-dimethyl-2,2′-bipyridin-4-ylamino)-1H-pyrazolo[4,3-b]pyridin-1-yl)acetamide], for which the IC50 in test [1] is 10 nM; in test [2], 126 nM.

With `Cc1ccc(F)c(-c2cc(Nc3ccnc4cn(C5CC5)nc34)ccn2)n1` [Example 121, 2-cyclopropyl-N-(3′-fluoro-6′-methyl-2,2′-bipyridin-4-yl)-2H-pyrazolo[4,3-b]pyridin-7-amine], the values for the IC50 in test [1] and in test [2] were 3.16 nM and 12.6 nM, respectively.

In the case of `CN(C)C(=O)n1ncc2nccc(Nc3ccnc(-c4cc(Cl)ccc4F)c3)c21` [Example 39, 7-(2-(5-chloro-2-fluorophenyl)pyridin-4-ylamino)-N,N-dimethyl-1H-pyrazolo[4,3-b]pyridine-1-carboxamide], the IC50 was 100 nM in test [1] and 316 nM in test [2].

Regarding `Cc1ccc(F)c(-c2cc(Nc3ccnc4cnn(C[C@H](C)O)c34)ccn2)n1` [Example 106, (S)-1-(7-(3′-fluoro-6′-methyl-2,2′-bipyridin-4-ylamino)-1H-pyrazolo[4,3-b]pyridin-1-yl)propan-2-ol], the results for the IC50 in test [1] and in test [2] were 126 nM and 1260 nM, respectively.

As for `CCNC(=O)n1ncc2nccc(Nc3ccnc(-c4cc(Cl)ccc4F)c3)c21` [Example 29, 7-(2-(5-chloro-2-fluorophenyl)pyridin-4-ylamino)-N-ethyl-1H-pyrazolo[4,3-b]pyridine-1-carboxamide], the IC50 in test [1] and in test [2] was 100 nM each time.

In the case of `Cc1ccc(F)c(-c2cc(Nc3ccnc4cn(CCF)nc34)ccn2)n1` [Example 102, N-(3′-fluoro-6′-methyl-2,2′-bipyridin-4-yl)-2-(2-fluoroethyl)-2H-pyrazolo[4,3-b]pyridin-7-amine], the results for the IC50 in test [1] and in test [2] were 15.8 nM and 50.1 nM, respectively.

Consider `CNC(=O)Cn1ncc2ncc(F)c(Nc3cc(-c4nc(C)ccc4F)ncc3C)c21` [Example 148, 2-(6-fluoro-7-(3′-fluoro-5,6′-dimethyl-2,2′-bipyridin-4-ylamino)-1H-pyrazolo[4,3-b]pyridin-1-yl)-N-methylacetamide], for which the IC50 in test [1] is 200 nM; in test [2], 1000 nM.

Regarding `NC(=O)Cn1cc2nccc(Nc3ccnc(-c4cc(Cl)ccc4F)c3)c2n1` [Example 43, 2-(7-(2-(5-chloro-2-fluorophenyl)pyridin-4-ylamino)-2H-pyrazolo[4,3-b]pyridin-2-yl)acetamide], the 50% inhibitory concentration (IC50) in test [1] was 7.94 nM; in test [2] it was 100 nM.

For `Cc1ccc(F)c(-c2cc(Nc3ccnc4cnn([C@H]5CCOC5)c34)c(C)cn2)n1` [Example 141, (S)—N-(3′-fluoro-5,6′-dimethyl-2,2′-bipyridin-4-yl)-1-(tetrahydrofuran-3-yl)-1H-pyrazolo[4,3-b]pyridin-7-amine], the IC50 in test [1] was 25.1 nM; in test [2] it was 158 nM.
